Consider 36 compounds from patent publication US8889667B2 (Agios Pharmaceuticals, Inc, priority 2010, dated 2014).

Where only a bound is given, the exact number is not on record here.

PKM2, sequence (P14618 whole entry): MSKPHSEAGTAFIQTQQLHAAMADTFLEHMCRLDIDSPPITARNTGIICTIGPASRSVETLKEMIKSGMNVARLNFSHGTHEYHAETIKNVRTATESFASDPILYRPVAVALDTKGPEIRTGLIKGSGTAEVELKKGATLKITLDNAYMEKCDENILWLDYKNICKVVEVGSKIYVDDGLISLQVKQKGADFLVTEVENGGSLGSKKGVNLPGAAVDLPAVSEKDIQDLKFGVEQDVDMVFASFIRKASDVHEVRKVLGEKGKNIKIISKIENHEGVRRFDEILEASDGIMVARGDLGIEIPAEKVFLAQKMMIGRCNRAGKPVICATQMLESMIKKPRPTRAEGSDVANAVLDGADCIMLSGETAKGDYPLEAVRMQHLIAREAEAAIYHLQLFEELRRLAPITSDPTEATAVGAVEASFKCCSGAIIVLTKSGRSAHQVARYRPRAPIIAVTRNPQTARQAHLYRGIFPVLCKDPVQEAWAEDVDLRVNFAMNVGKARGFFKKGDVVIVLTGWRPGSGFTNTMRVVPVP

The first assay deals with PKM2 (Homo sapiens, UniProt P14618). Description: PKM2 Assay (activation, LDH-coupled, absorbance at 340 nm). Type of assay: biochemical. The conditions noted are these: Table 4. A digest of the protocol:
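Human PKM2 (50 ng/well) was preincubated with compound and coupling mix for 30 min at 4 °C without ADP. Reactions were then started with ADP (0.7 mM) alongside PEP 0.15 mM, NADH 180 μM and LDH, in Tris pH 7.5/KCl/MgCl2/DTT/BSA buffer. A340 was followed at 25 °C and activation reported as AC50.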
Compound `C[C@@H]1CN(C(=O)OCCC2CCCC2)CCN1C(=O)c1ccc(NS(=O)(=O)c2cccc3cccnc23)cc1` [Compound 122, (R)-2-Cyclopentylethyl-3-methyl-4-(4-(quinoline-8-sulfonamido)benzoyl)piperazine-1-carboxylate] registered an AC50 below 100 nM.

For the compound `CC1CN(Cc2cc(F)cc(F)c2F)CC(C)N1C(=O)c1ccc(NS(=O)(=O)c2cccc3cccnc23)cc1` (stereo not drawn) [Compound 200, N-(4-(2,6-dimethyl-4-(2,3,5-trifluorobenzyl)piperazine-1-carbonyl)phenyl)quinoline-8-sulfonamide], the AC50 was below 100 nM.

`C[C@@H]1CN(C(=O)OC2CCCCC2)CCN1C(=O)c1ccc(NS(=O)(=O)c2cccc3cccnc23)cc1` [Compound 123, (R)-Cyclohexyl 3-methyl-4-(4-(quinoline-8-sulfonamido)benzoyl)piperazine-1-carboxylate] yielded an AC50 below 100 nM.

Compound `CC(c1c(F)cc(F)cc1F)N1CCN(C(=O)c2ccc(NS(=O)(=O)c3cccc4cccnc34)cc2)[C@@H](C)C1` (stereo partly drawn) [Compound 172] showed an AC50 of 100 to 500 nM.

For `CC[C@H]1CN(Cc2cc(F)cc(F)c2)CCN1C(=O)c1ccc(NS(=O)(=O)c2cccc3cccnc23)cc1` [Compound 136, (S)—N-(4-(4-(3,5-difluorobenzyl)-2-ethylpiperazine-1-carbonyl)phenyl)quinoline-8-sulfonamide], the AC50 lay in the range of 100 to 500 nM.

The compound `C[C@H]1CN(CC2CC2)CCN1C(=O)c1ccc(NS(=O)(=O)c2cccc3cccnc23)cc1Cl` [Compound 178] yielded an AC50 of 100 to 500 nM.

The compound `C[C@H]1CN(Cc2ccc(F)cc2)CCN1C(=O)c1ccc(NS(=O)(=O)c2cccc3cccnc23)cc1Cl` [Compound 184, (S)—N-(3-chloro-4-(4-(4-fluorobenzyl)-2-methylpiperazine-1-carbonyl)phenyl)quinoline-8-sulfonamide] yielded an AC50 of 100 to 500 nM.

As to `C[C@@H]1CN(C(=O)OCC2CC2)CCN1C(=O)c1ccc(NS(=O)(=O)c2cccc3cccnc23)cc1` [Compound 112, (R)-Cyclopropylmethyl 3-methyl-4-(4-(quinoline-8-sulfonamido)benzoyl)piperazine-1-carboxylate], the AC50 is below 100 nM.

For `C[C@@H]1CN(CC2CCOC2)CCN1C(=O)c1ccc(NS(=O)(=O)c2cccc3cccnc23)cc1` (stereo partly drawn) [Compound 115, N-(4-((2R)-2-methyl-4-((tetrahydrofuran-3-yl)methyl)piperazine-1-carbonyl)phenyl)quinoline-8-sulfonamide], the AC50 fell in the range of 100 to 500 nM.

Turning to `CC(c1ccc(F)c(F)c1F)N1CCN(C(=O)c2ccc(NS(=O)(=O)c3cccc4cccnc34)cc2)[C@H](C)C1` (stereo partly drawn) [Compound 189, N-(4-((2R)-2-methyl-4-(1-(2,3,4-trifluorophenyl)ethyl)piperazine-1-carbonyl)phenyl)quinoline-8-sulfonamide], the AC50 was below 100 nM.

In turn, `O=C(c1ccc(NS(=O)(=O)c2cccc3cccnc23)cc1)N1CCN(Cc2ccc(F)cc2)C[C@@H]1c1ccccc1` [Compound 165] came in with an AC50 below 100 nM.

`C[C@H]1CN(Cc2cc(F)cc(F)c2F)CCN1C(=O)c1ccc(NS(=O)(=O)c2cccc3cccnc23)cc1` [Compound 137, (S)—N-(4-(2-methyl-4-(2,3,5-trifluorobenzyl)piperazine-1-carbonyl)phenyl)quinoline-8-sulfonamide] displayed an AC50 below 100 nM.

`CC(c1ccc(F)cc1)N1CCN(C(=O)c2ccc(NS(=O)(=O)c3cccc4cccnc34)cc2)[C@@H](C)C1` (stereo partly drawn) [Compound 171] returned an AC50 of 100 to 500 nM.

In the case of `CC1CN(Cc2ccc(Cl)c(F)c2)CC(C)N1C(=O)c1ccc(NS(=O)(=O)c2cccc3cccnc23)cc1` (stereo not drawn) [Compound 197, N-(4-(4-(4-chloro-3-fluorobenzyl)-2,6-dimethylpiperazine-1-carbonyl)phenyl)quinoline-8-sulfonamide], the concentration at half-maximal activity (AC50) lay within 100 to 500 nM.

In the case of `C[C@@H]1CN(CC2CCCCO2)CCN1C(=O)c1ccc(NS(=O)(=O)c2cccc3cccnc23)cc1` (stereo partly drawn) [Compound 163, N-(4-((2R)-2-methyl-4-((tetrahydro-2H-pyran-2-yl)methyl)piperazine-1-carbonyl)phenyl)quinoline-8-sulfonamide], the AC50 is below 100 nM.

`C[C@H]1CN(C(=O)OCC2CC2)CCN1C(=O)c1ccc(NS(=O)(=O)c2cccc3cccnc23)cc1` [Compound 111, (S)-Cyclopropylmethyl3-methyl-4-(4-(quinoline-8-sulfonamido)benzoyl)piperazine-1-carboxylate] registered a concentration at half-maximal activity (AC50) below 100 nM.

As for `C[C@@H]1CN(CC2CCC2)CCN1C(=O)c1ccc(NS(=O)(=O)c2cccc3cccnc23)cc1` [Compound 206, (R)—N-(4-(4-(cyclobutylmethyl)-2-methylpiperazine-1-carbonyl)phenyl)quinoline-8-sulfonamide], the AC50 is below 100 nM.

In turn, `C[C@H]1CN(C[C@@H]2CCOC2)CCN1C(=O)c1ccc(NS(=O)(=O)c2cccc3cccnc23)cc1` [Compound 209] displayed a half-maximal activity concentration (AC50) of 100 to 500 nM.

Turning to “N-(4-(3,5-dimethylpiperazine-1-carbonyl)phenyl)quinoline-8-sulfonamide [Compound 104]”, the AC50 was in the range of 100 to 500 nM.

Compound `C[C@H]1CN(Cc2cc(F)c(F)cc2F)CCN1C(=O)c1ccc(NS(=O)(=O)c2cccc3cccnc23)cc1` [Compound 145, (S)—N-(4-(2-methyl-4-(2,4,5-trifluorobenzyl)piperazine-1-carbonyl)phenyl)quinoline-8-sulfonamide] returned an AC50 below 100 nM.

Staying with this assay, now noted: Table 5.
`O=C(c1ccc(NS(=O)(=O)c2cccc3cccnc23)c(OC(F)(F)F)c1)N1CCN(CC2CCOC2)CC1` (stereo not drawn) [Compound 302, N-(4-(4-((tetrahydrofuran-3-yl)methyl)piperazine-1-carbonyl)-2-(trifluoromethoxy)phenyl)quinoline-8-sulfonamide] registered an AC50 of 500 to 1000 nM.

Compound `O=C(c1ccc(NS(=O)(=O)c2cccc3cccnc23)cc1)N1CCN(Cc2ccc(F)cc2)CC1` [Compound 341, N-(4-(4-(4-fluorobenzyl)piperazine-1-carbonyl)phenyl)quinoline-8-sulfonamide] registered a concentration at half-maximal activity (AC50) below 100 nM.

With `O=C(c1ccc(NS(=O)(=O)c2cccc3cccnc23)c(OC(F)(F)F)c1)N1CCN(Cc2ccc(F)cc2)CC1` [Compound 337, N-(4-(4-(4-fluorobenzyl)piperazine-1-carbonyl)-2-(trifluoromethoxy)phenyl)quinoline-8-sulfonamide], the AC50 was in the range of 1000 to 20000 nM.

Compound `COc1cc(C(=O)N2CCN(C(=O)c3cccc(F)c3F)CC2)ccc1NS(=O)(=O)c1cccc2cccnc12` [Compound 318, N-(4-(4-(2,3-difluorobenzoyl)piperazine-1-carbonyl)-2-methoxyphenyl)quinoline-8-sulfonamide] returned a half-maximal activity concentration (AC50) of 100 to 500 nM.

`CC(C)(C(=O)N1CCN(C(=O)c2ccc(NS(=O)(=O)c3cccc4cccnc34)c(OC(F)(F)F)c2)CC1)c1ccc(F)cc1` [Compound 362]: the AC50 lay in the range of 100 to 500 nM.

Turning to `COc1cc(NS(=O)(=O)c2cccc3cccnc23)ccc1C(=O)N1CCN(C2(c3ccc(F)cc3)CC2)CC1` [Compound 401, N-(4-(4-(1-(4-fluorophenyl)cyclopropyl)piperazine-1-carbonyl)-3-methoxyphenyl)quinoline-8-sulfonamide], the AC50 was below 100 nM.

Take `O=C(c1ccc(NS(=O)(=O)c2cccc3cccnc23)c(OC(F)(F)F)c1)N1CCN(Cc2cc(Cl)cc(Cl)c2)CC1` [Compound 391, N-(4-(4-(3,5-dichlorobenzyl)piperazine-1-carbonyl)-2-(trifluoromethoxy)phenyl)quinoline-8-sulfonamide]: the AC50 was 100 to 500 nM.

`CC(C)(c1cccc(F)c1)N1CCN(C(=O)c2ccc(NS(=O)(=O)c3cccc4cccnc34)cc2)CC1` [Compound 405] yielded a half-maximal activity concentration (AC50) below 100 nM.

In turn, `O=C(c1ccc(NS(=O)(=O)c2cccc3cccnc23)cc1)N1CCN(CC2CCC2)CC1` [Compound 419, N-(4-(4-(cyclobutylmethyl)piperazine-1-carbonyl)phenyl)quinoline-8-sulfonamide] returned an AC50 below 100 nM.

As for `O=C(c1ccc(NS(=O)(=O)c2cccc3cccnc23)c(OC(F)(F)F)c1)N1CCN(C2(c3ccccc3)CC2)CC1` [Compound 353, N-(4-(4-(1-phenylcyclopropyl)piperazine-1-carbonyl)-2-(trifluoromethoxy)phenyl)quinoline-8-sulfonamide], the concentration at half-maximal activity (AC50) fell in the range of 500 to 1000 nM.

In turn, `O=C(c1ccc(NS(=O)(=O)c2cccc3cccnc23)cc1F)N1CCN(CC2CCCO2)CC1` (stereo not drawn) [Compound 437, N-(3-fluoro-4-(4-((tetrahydrofuran-2-yl)methyl)piperazine-1-carbonyl)phenyl)quinoline-8-sulfonamide] yielded an AC50 below 100 nM.

As to `O=C(c1ccc(NS(=O)(=O)c2cccc3cccnc23)cc1Cl)N1CCN(CC2CCOC2)CC1` (stereo not drawn) [Compound 429, N-(3-chloro-4-(4-((tetrahydrofuran-3-yl)methyl)piperazine-1-carbonyl)phenyl)quinoline-8-sulfonamide], the AC50 fell in the range of 100 to 500 nM.

The compound `COc1cc(C(=O)N2CCN(C(=O)Oc3ccccn3)CC2)ccc1NS(=O)(=O)c1cccc2cccnc12` [Compound 315, Pyridin-2-yl 4-(3-methoxy-4-(quinoline-8-sulfonamido)benzoyl)piperazine-1-carboxylate] gave an AC50 of 100 to 500 nM.

Regarding `O=C(OCC1CCCO1)N1CCN(C(=O)c2ccc(NS(=O)(=O)c3cccc4cccnc34)c(OC(F)(F)F)c2)CC1` (stereo not drawn) [Compound 316, (tetrahydrofuran-2-yl)methyl-4-(4-(quinoline-8-sulfonamido)-3-(trifluoromethoxy)benzoyl)piperazine-1-carboxylate], the AC50 was in the range of 1000 to 20000 nM.

Regarding `O=C(c1ccc(NS(=O)(=O)c2cccc3cccnc23)cc1)N1CCN(C(=O)C2CCOCC2)CC1` [Compound 417, N-(4-(4-(tetrahydro-2H-pyran-4-carbonyl)piperazine-1-carbonyl)phenyl)quinoline-8-sulfonamide], the AC50 lay in the range of 100 to 500 nM.

On to `O=C(c1ccc(NS(=O)(=O)c2cccc3cccnc23)cc1)N1CCN(C(c2ccccc2)C(F)(F)F)CC1` (stereo not drawn) [Compound 358, N-(4-(4-(2,2,2-trifluoro-1-phenylethyl)piperazine-1-carbonyl)phenyl)quinoline-8-sulfonamide], for which the AC50 is below 100 nM.

What is called AC50 is the midpoint of the concentration-response curve, whichever way the signal moves. A lower AC50 goes with activity at low concentration.
